For one compound, pIC50 results are on record in the supplement of paper PMC12076712.

Targets include PRKCH (UniProt P24723); CAMKK1 (UniProt Q8N5S9); TESK1 (UniProt Q15569); TRRAP (UniProt Q9Y4A5); MAPKAPK3 (UniProt Q16644); DDR1 (UniProt Q08345); HIPK1 (UniProt Q86Z02); UniProt P78527.
Test in all cases: pIC50, kinobeads binding competition
What all share (conditions): cell material: Jurkat lysate

For a further experiment, the target named is T1, UniProt P25098.
T1 sequence (whole entry): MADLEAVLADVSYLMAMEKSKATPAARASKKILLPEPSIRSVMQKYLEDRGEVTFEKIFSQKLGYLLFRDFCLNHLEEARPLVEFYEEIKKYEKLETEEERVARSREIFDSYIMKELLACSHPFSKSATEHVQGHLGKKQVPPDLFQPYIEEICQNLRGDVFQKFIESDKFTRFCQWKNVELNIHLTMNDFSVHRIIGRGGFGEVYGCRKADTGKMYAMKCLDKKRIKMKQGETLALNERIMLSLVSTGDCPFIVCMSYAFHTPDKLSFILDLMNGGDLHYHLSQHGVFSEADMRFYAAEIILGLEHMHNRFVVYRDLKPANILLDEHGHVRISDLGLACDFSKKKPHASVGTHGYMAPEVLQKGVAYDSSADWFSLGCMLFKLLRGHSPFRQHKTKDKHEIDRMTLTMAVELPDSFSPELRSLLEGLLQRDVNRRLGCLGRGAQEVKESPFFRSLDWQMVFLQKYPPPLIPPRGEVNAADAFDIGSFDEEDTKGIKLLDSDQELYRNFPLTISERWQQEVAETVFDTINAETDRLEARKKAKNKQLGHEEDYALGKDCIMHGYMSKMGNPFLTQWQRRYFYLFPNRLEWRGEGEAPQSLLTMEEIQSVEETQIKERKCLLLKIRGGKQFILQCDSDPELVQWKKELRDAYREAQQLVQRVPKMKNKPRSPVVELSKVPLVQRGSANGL

Another experiment has as its target T2, SGK3 (UniProt Q96BR1).
T2 sequence (whole entry): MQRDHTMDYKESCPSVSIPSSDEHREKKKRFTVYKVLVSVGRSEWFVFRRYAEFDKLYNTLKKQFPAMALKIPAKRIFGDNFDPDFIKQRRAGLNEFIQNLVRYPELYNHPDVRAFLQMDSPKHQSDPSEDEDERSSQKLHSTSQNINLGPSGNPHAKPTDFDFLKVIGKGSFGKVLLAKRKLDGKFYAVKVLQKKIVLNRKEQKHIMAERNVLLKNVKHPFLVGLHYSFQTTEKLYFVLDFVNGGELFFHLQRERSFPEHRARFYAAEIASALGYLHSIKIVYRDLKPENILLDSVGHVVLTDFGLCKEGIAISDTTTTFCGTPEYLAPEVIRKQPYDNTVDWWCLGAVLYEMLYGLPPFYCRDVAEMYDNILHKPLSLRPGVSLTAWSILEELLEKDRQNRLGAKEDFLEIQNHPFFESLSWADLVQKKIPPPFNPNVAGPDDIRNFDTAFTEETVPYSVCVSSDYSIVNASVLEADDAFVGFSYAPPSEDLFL

The next experiment deals with T3, EPHB2 (UniProt P29323).
T3 sequence (whole entry): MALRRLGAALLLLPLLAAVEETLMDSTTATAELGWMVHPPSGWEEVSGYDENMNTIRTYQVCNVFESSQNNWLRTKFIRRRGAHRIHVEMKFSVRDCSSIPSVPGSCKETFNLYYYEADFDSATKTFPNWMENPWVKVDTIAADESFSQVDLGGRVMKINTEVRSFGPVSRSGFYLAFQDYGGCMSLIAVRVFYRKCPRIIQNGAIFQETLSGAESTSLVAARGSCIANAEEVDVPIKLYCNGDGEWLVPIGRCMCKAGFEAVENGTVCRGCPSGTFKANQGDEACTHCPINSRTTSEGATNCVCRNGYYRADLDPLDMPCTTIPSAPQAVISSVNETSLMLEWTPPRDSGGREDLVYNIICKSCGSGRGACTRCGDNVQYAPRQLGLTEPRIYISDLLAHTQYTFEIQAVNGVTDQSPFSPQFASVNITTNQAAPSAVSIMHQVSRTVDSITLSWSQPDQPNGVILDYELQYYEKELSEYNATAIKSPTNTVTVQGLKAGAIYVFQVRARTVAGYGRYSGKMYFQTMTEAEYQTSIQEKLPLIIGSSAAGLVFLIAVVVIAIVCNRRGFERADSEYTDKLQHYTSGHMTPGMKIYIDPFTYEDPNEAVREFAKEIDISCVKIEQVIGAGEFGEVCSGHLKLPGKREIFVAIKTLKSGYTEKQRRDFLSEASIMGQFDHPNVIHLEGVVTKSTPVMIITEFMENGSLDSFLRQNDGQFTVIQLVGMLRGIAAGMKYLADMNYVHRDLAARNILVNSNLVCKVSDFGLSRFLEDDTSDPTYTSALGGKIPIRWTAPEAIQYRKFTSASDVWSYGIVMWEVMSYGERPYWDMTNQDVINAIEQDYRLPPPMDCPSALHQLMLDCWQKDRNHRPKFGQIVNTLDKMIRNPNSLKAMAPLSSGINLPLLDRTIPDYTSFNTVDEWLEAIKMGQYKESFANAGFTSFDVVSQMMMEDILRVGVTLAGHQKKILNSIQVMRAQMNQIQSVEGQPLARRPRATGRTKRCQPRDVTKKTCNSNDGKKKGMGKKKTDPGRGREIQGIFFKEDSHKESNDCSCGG

Chain of UniProt P78527 (P78527 whole entry): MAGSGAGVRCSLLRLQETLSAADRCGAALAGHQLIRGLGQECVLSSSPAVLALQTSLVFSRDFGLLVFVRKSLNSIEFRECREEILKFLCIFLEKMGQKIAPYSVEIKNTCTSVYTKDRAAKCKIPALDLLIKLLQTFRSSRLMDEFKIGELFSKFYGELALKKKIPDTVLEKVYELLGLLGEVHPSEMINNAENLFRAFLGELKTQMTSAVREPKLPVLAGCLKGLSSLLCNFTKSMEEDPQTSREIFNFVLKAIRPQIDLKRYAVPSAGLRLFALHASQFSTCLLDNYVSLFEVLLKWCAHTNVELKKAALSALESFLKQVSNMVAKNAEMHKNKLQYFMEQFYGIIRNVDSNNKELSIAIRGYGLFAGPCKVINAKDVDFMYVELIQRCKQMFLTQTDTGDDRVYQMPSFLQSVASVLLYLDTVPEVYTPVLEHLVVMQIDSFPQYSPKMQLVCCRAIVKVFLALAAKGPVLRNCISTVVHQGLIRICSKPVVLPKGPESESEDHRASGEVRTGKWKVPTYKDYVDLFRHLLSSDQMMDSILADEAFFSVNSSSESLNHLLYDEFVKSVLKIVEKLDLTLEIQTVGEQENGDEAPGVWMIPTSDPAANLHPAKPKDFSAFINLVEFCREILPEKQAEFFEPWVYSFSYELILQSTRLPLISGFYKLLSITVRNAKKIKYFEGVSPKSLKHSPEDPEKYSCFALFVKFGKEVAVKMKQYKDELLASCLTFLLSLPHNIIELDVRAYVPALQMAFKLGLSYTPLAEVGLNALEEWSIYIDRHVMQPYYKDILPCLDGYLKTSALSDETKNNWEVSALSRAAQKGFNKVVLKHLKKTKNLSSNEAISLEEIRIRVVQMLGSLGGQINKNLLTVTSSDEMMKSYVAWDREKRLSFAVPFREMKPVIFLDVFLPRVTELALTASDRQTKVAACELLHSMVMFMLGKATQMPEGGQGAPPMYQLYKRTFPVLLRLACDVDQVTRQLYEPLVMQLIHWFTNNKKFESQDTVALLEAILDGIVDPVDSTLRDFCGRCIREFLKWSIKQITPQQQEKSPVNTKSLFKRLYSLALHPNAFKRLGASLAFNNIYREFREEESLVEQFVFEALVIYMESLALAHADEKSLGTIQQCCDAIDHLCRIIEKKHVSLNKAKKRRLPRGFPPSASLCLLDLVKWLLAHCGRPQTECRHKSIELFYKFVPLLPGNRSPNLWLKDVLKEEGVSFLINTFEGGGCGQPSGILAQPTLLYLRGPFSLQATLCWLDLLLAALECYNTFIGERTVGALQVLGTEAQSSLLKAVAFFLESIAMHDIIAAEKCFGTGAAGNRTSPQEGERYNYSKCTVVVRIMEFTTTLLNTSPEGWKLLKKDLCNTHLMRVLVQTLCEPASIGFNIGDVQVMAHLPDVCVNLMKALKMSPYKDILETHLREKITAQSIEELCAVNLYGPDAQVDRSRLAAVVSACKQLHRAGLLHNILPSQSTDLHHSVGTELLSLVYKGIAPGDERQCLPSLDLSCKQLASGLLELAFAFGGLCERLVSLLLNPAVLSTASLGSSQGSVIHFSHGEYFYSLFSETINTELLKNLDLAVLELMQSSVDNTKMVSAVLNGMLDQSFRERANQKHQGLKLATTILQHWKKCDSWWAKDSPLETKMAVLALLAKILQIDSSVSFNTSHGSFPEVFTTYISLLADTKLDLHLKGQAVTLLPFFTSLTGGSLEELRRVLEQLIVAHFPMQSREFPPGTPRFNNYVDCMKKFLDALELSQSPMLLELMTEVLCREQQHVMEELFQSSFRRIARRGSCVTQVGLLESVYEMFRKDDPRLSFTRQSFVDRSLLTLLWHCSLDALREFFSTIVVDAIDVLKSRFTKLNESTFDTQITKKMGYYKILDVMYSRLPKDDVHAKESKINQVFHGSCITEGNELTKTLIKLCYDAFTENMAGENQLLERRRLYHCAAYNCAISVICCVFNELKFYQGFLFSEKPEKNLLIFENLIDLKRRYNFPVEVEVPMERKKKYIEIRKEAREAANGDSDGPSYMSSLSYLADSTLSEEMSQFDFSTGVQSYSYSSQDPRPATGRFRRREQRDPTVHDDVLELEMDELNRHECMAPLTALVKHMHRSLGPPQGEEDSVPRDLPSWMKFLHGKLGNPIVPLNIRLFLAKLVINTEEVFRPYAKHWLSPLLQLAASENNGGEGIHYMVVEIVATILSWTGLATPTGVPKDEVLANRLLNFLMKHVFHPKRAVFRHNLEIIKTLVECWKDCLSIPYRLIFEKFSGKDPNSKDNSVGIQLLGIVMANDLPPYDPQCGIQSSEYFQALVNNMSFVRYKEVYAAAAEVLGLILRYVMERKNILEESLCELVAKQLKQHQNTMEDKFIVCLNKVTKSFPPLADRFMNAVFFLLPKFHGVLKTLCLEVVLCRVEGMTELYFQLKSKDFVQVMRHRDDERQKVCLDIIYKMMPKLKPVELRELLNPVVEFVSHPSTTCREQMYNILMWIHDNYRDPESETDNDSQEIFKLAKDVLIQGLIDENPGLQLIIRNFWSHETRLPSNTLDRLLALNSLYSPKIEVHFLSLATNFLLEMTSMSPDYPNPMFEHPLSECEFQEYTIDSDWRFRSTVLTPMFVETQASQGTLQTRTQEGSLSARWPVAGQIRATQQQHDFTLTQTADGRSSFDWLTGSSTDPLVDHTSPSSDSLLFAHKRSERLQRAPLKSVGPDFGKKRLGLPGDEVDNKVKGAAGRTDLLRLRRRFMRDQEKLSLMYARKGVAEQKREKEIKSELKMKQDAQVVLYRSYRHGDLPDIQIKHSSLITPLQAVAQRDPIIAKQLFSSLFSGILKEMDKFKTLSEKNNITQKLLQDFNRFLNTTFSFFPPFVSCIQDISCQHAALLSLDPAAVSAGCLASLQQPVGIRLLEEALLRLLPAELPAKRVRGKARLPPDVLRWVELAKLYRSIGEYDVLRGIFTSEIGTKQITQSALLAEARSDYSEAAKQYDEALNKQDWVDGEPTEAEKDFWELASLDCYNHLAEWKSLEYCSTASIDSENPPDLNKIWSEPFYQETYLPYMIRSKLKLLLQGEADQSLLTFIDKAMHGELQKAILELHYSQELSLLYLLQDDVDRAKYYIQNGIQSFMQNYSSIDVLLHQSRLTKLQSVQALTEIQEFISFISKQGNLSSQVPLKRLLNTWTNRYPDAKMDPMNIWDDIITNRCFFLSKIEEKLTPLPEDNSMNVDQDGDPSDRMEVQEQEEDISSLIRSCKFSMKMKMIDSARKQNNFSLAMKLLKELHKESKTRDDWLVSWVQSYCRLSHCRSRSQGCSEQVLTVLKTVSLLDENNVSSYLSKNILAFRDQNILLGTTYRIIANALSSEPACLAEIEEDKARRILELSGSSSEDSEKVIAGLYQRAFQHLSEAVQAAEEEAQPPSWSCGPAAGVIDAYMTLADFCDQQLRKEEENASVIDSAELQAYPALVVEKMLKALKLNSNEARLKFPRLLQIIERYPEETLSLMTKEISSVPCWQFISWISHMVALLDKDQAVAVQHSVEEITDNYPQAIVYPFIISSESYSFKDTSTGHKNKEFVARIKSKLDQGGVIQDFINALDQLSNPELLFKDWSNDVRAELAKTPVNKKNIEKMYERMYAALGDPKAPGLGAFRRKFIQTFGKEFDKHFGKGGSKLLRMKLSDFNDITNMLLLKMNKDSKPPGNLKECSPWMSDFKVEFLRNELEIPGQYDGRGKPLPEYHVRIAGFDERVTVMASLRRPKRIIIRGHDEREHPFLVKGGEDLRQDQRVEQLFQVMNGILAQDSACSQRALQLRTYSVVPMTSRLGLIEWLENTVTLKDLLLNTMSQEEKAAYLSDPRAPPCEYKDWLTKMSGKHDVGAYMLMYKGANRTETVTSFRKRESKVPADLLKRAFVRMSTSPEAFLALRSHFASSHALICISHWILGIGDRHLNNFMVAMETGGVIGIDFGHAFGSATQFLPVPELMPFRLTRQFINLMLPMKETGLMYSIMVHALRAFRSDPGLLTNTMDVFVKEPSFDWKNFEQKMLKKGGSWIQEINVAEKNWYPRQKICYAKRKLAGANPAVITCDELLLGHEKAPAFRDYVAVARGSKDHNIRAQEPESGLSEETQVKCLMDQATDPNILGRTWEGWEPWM
Chain of CAMKK1 (Q8N5S9 whole entry, looked up): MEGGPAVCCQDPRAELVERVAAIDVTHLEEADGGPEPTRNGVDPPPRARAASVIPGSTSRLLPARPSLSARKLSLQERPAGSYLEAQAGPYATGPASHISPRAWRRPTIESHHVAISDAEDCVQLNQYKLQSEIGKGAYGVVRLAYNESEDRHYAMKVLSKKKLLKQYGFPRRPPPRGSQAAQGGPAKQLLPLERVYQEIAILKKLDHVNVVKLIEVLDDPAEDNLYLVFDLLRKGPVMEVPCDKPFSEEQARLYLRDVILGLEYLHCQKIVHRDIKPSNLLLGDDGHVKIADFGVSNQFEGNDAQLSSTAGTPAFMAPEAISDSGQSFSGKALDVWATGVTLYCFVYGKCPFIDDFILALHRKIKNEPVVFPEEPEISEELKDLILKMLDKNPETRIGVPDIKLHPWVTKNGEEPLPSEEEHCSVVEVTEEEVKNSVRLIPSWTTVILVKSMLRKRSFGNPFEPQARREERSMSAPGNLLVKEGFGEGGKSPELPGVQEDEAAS
Chain of MAPKAPK3 (Q16644 whole entry, looked up): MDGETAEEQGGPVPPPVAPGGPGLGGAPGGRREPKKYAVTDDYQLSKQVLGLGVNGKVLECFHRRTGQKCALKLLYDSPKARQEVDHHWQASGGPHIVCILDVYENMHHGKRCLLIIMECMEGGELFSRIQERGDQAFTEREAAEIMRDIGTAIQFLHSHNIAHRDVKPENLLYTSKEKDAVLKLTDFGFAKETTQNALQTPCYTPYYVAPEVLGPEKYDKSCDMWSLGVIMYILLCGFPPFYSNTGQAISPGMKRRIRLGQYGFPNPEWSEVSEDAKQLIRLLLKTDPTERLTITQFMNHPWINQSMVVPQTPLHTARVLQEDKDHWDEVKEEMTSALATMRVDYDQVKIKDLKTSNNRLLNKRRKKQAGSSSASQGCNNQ

For `CCc1cnn2c(NCc3ccc[n+]([O-])c3)cc(N3CCCC[C@H]3CCO)nc12` [dinaciclib], the pIC50 at UniProt P25098 is below 4.52; at PRKCH, below 4.52; on CAMKK1, 4.6; at TESK1, below 4.52; on SGK3 it was below 4.52; on TRRAP, below 4.52. Moreover, the pIC50 on EPHB2 is below 4.52; on MAPKAPK3 it was 6.8; on DDR1 it was below 4.52; at HIPK1 it was 4.77; on UniProt P78527 it was below 4.52.
